Results on six compounds are retold here after patent US12227488B2, “Small molecule degraders of Helios and methods of use” (DANA-FARBER CANCER INSTITUTE, INC., priority 2018, dated 2025).

The target in test [1] is T1, CRBN and Helios (IKZF2) (Homo sapiens, UniProt Q96SW2+Q9UKS7).
T1 construct: His (N); Strep (N)
Description: TR-FRET dimerization assay (CRBN-IKZF2 ternary complex formation). In kind it is binding. The settings on record: for TR-FRET-IKZF2 (Normalized to CC-885): n=1. An outline of the steps:
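Compound-induced IKZF2 recruitment to CRBN was read as the 520/490 nm TR-FRET ratio after 15 min at rt. The mix held biotinylated IKZF2, BODIPY-labeled CRBN bound to DDB1 lacking the BPB propeller, tracer Tb-streptavidin and compound titrations; n=1, from ≥3 technical replicates per well.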
On the technique in general: In TR-FRET formats the signal depends on donor and acceptor labels being close together.

Test [2] relates to IKZF2. The test is described as follows: Cellular degradation assay, eGFP-IKZF2Δ fusion with mCherry reporter in Flp-In 293 cells. The settings on record: for IKZF2 GFP/RFP Relative Abundance: 5 h incubation, n=1. In kind it is cell-based. An outline of the steps:
(§1)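 DC50,5 h derived by variable-slope nonlinear fit of the per-well ratio of GFP-positive to mCherry-positive cells, imaged after 5 h compound exposure at 0.5% DMSO.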

For test [3], the target named is T2, IKZF1 (Homo sapiens, UniProt Q13422).
T2 construct: expressed in transfected cells; host or cells: Flp-In 293
The test is described as follows: Cellular degradation assay, eGFP-IKZF1Δ fusion with mCherry reporter in Flp-In 293 cells. It is filed as cell-based. The settings on record: for IKZF1 GFP/RFP Relative Abundance: 5 h incubation, n=1. An outline of the steps:
as §1

Test [4] addresses T3, SALL4 ZNF1-2 (Homo sapiens, UniProt Q96SW2+Q9UJQ4).
T3 construct: IKZF1Δ, IKZF2Δ, GSPT1 and SALL4 ZnF1-2 were subcloned; expressed in transfected cells; host or cells: Flp-In 293
The test is described as follows: Cellular degradation assay, eGFP-SALL4 ZnF1-2 fusion with mCherry reporter in Flp-In 293 cells. In kind it is cell-based. The settings on record: 5 h incubation, n=1. As for the experimental part: IKZF1Δ, IKZF2Δ, GSPT1 and SALL4 ZnF1-2 were subcloned into mammalian pcDNA5/FRT Vector (Ampicillin and Hygromycin B resistant) modified to contain MCS-eGFP-P2A-mCherry. Stable cell lines expressing eGFP-protein fusion and mCherry reporter were generated using Flp-In™ 293 system. Plasmid (0.3 μg) and pOG44 (4.7 μg) DNA were preincubated in 100 μL of Opti-MEM® I (Gibco®, Life Technologies™) media containing 0.05 mg/mL Lipofectamine® 2000 (Invitrogen™) for 20 min and added to Flp-In™ 293 cells containing 1.9 ml of DMEM media (Gibco®, Life Technologies™) per well in a 6-well plate format (Falcon, 353046). Cells were propagated after 48 h and transferred into a 10 cm^2 plate (Corning, 430165) in DMEM media containing 50 μg/mL of Hygromycin B (REF 10687010, Invitrogen™) as a selection marker. Following 2-3 passage cycle, FACS (FACSAria™ II, BD) was used to enrich for cells expressing eGFP and mCherry. Cells stably expressing the IKZF1Δ, IKZF2Δ, GSPT1 or SALL4 Znf1-2 GFP fusions with mCherry reporter were seeded at 30-50% confluency in 384-well plates with 50 μL FluoroBrite™ DMEM media (Thermo Fisher Scientific, A18967) containing 10% FBS per well a day before compound treatment. Compound titrations were dispensed using a D300e Digital Dispenser (HP), normalized to 0.5% DMSO, and incubated with cells for 5 hours. The assay plate was imaged immediately using an Acumen® High Content Imager (TTP Labtech) with 488 nm and 561 nm lasers in […] grid per well format.
The resulting images were analyzed using CellProfiler™. A series of image analysis steps (‘image analysis pipeline’) was constructed. First, the red and green channels were aligned and cropped to target the middle of each well (to avoid analysis of heavily clumped cells at the edges), and a background illumination function was calculated for both red and green channels of each well individually and subtracted to correct for illumination variations across the 384-well plate from various sources of error. An additional step was then applied to the green channel to suppress the analysis of large auto fluorescent artifacts and enhance the analysis of cell specific fluorescence by way of selecting for objects under a given size, 30 A.U., and with a given shape, speckles. mCherry-positive cells were then identified in the red channel filtering for objects between 8-60 pixels in diameter and using intensity to distinguish between clumped objects. The green channel was then segmented into GFP positive and negative areas and objects were labeled as GFP positive if at least 40% of it overlapped with a GFP positive area. The fraction of GFP-positive cells/mCherry-positive cells in each well was then calculated, and the green and red images were rescaled for visualization.

In test [5] the target is GSPT1 (Homo sapiens, UniProt P15170+Q96SW2). Description: Cellular degradation assay, eGFP-GSPT1 fusion with mCherry reporter in Flp-In 293 cells. It is filed as cell-based. Further details: expressed in transfected cells; host or cells: Flp-In 293. The settings on record: for GSPT1 GFP/RFP Relative Abundance: 5 h incubation, n=1. An outline of the steps: as §1
The mark [6] stands for this setting: compound concentration 6.6667E−05.
[7] abbreviates: compound concentration 6.6667E−06.
[8] abbreviates: compound concentration 6.6667E−07 (667 nM).
[9] abbreviates: compound concentration 2.00E−05.
[10] abbreviates: compound concentration 2.00E−06.
Where [11] appears, read: compound concentration 2.00E−07.
Where [12] appears, read: half degradation at 5 h (DC50,5 h), triplicate, 11 point dose response.

“Also recorded” adds a separate entry of the source.

Chain of GSPT1 (P15170 whole entry, the tested form may be a part): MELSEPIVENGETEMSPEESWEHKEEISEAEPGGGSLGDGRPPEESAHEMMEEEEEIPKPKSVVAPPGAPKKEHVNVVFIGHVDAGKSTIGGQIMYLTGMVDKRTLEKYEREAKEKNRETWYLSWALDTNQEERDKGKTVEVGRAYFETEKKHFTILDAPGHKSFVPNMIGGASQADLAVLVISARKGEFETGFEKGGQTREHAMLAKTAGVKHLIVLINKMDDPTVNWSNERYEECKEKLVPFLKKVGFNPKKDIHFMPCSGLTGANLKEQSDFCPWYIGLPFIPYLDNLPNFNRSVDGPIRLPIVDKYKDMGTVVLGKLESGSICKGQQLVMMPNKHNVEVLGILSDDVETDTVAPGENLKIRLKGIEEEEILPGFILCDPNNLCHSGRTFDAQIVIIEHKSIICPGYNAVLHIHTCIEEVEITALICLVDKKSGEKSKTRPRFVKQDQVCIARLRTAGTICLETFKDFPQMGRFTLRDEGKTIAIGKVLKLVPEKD
Chain of GSPT1 (Q96SW2 whole entry, the tested form may be a part): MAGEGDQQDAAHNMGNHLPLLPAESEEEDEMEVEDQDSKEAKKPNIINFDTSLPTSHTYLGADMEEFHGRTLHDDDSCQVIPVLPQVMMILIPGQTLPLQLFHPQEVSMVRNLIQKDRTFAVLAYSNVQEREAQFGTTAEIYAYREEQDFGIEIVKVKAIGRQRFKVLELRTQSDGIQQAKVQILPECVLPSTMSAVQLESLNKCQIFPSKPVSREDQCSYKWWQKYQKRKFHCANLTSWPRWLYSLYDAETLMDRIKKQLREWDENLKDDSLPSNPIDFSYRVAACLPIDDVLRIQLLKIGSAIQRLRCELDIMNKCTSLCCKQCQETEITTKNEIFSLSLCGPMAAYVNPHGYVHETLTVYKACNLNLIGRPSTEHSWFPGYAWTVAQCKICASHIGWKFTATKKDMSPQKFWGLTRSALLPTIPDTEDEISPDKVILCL
Chain of GSPT1 (Q16531 whole entry partner, the tested form may be a part): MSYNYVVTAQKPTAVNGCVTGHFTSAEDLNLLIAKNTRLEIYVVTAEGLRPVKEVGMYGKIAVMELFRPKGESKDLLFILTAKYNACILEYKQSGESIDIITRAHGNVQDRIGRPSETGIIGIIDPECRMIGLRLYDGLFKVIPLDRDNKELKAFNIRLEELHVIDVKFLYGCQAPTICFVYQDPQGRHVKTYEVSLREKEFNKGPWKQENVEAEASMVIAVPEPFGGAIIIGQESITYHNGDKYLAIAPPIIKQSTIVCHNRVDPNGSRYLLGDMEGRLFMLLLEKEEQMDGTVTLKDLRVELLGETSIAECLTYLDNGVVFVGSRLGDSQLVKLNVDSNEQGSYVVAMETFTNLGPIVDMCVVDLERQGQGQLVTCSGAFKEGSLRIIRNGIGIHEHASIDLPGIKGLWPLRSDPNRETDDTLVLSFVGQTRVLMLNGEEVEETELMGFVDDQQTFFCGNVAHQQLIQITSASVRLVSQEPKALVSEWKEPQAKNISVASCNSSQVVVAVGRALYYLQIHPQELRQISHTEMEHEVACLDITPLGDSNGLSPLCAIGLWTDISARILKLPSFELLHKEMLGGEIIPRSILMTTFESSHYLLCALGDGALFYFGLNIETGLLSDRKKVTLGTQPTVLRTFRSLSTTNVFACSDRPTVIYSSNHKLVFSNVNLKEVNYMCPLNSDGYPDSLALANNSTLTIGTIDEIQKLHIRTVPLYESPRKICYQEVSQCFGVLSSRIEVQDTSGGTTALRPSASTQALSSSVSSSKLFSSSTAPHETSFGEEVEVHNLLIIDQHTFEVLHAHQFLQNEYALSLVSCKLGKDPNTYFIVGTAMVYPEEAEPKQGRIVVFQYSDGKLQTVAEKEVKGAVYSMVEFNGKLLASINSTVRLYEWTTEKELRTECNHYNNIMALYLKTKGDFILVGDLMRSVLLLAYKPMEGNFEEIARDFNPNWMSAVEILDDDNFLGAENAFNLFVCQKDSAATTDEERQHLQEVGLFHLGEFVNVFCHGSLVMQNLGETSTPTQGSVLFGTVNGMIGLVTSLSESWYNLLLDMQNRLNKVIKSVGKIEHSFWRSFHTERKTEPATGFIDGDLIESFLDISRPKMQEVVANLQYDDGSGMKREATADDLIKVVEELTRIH
T1 sequence (Q96SW2 whole entry): as the sequence (Q96SW2 whole entry, the tested form may be a part) above
T1 sequence (Q9UKS7 whole entry): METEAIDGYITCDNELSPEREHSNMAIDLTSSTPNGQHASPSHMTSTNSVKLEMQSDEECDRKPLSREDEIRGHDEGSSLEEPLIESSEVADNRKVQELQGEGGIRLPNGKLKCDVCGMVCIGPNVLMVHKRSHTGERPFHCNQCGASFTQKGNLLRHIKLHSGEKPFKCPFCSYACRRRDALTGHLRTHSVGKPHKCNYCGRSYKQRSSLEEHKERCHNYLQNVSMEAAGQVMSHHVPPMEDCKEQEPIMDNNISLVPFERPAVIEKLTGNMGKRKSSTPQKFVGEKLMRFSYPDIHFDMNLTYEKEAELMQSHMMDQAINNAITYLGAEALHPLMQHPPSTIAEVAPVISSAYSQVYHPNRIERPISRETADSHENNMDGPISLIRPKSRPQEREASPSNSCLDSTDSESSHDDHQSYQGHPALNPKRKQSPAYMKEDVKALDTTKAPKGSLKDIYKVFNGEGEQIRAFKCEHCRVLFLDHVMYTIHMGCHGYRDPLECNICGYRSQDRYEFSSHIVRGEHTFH
T2 sequence (Q13422 83-213 isoform Q13422-7 limits assumed): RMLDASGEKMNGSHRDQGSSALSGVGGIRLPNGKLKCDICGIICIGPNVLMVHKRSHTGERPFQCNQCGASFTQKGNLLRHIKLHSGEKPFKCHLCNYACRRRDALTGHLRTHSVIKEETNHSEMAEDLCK
T2 sequence (Q96SW2 whole entry partner): as the sequence (Q96SW2 whole entry, the tested form may be a part) above
T2 sequence (Q16531 2-1140 partner limits assumed): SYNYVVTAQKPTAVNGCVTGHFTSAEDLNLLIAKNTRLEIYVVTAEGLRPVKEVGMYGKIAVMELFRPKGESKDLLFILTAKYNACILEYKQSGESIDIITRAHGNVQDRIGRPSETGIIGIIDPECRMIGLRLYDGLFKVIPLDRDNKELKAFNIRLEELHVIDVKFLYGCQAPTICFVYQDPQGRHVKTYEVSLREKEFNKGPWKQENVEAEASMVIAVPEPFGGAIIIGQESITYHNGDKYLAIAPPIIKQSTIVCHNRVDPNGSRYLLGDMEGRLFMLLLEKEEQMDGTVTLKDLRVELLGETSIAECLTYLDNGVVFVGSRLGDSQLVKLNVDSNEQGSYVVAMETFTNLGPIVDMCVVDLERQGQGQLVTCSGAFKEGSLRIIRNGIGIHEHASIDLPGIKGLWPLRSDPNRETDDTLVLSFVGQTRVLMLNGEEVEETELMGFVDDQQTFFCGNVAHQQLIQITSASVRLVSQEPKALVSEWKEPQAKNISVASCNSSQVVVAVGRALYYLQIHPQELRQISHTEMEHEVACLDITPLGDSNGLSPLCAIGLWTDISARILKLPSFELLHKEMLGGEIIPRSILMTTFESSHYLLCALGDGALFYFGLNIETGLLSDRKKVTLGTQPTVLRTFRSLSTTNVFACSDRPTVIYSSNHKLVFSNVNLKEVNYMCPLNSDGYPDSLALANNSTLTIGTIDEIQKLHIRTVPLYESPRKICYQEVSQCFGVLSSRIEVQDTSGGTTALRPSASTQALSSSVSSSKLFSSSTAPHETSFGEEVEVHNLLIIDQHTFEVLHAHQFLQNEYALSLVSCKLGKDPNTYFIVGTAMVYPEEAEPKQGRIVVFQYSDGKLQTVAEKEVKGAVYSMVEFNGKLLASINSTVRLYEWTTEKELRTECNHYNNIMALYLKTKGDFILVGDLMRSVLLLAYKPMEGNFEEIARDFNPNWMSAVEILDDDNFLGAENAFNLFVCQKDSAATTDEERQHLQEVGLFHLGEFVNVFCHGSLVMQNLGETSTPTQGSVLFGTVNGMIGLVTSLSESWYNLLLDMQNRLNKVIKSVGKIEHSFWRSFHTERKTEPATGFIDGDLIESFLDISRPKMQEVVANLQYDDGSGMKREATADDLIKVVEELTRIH
T3 sequence (Q9UJQ4 378-438 limits assumed): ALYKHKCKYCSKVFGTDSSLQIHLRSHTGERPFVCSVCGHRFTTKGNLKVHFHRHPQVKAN
T3 sequence (Q96SW2 whole entry): as the sequence (Q96SW2 whole entry, the tested form may be a part) above
T3 sequence (Q16531 whole entry partner): as the sequence (Q16531 whole entry partner, the tested form may be a part) above

In the case of `Cc1ccc(NC(=O)NCc2ccc3c(c2)CN(C2CCC(=O)NC2=O)C3=O)cc1Cl` (centres unmarked) [CC-885, reference compound], the “TR-FRET signal (520/490 ratio), CRBN-Helios dimerization, in words” value in test [1] (FIG. 1B, 2A, 5) was “some activity; also recorded: able to recruit IKZF2 to CRBN”. For the same compound, the results for the “TR-FRET-IKZF2 (Normalized to CC-885)” value in test [1] (setting [6]), in test [1] (setting [7]) and in test [1] (setting [8]) were 1.065, 0.982 and 0.953, respectively. For the same compound, in test [2] (Table 1 summary), the “IKZF2 cellular degradation, in words” value is listed as “degrade the IKZF2 in cellular assay”. The entries for the “IKZF2 GFP/RFP Relative Abundance” value in test [2] (setting [9]), in test [2] (setting [10]) and in test [2] (setting [11]) were 0.277, 0.281 and 0.289, respectively. The DC50 in test [2] (setting [12]) is 80.7 nM; in test [3] (setting [12]) it was 0.56 nM; in test [5] (setting [12]), 0.084 nM. In addition, the “IKZF1 GFP/RFP Relative Abundance” value in test [3] (setting [9]) is given as 0.133; in test [3] (setting [10]) it was 0.071; in test [3] (setting [11]), 0.077. The entries for the “SALL4 ZNF1-2 GFP/RFP Relative Abundance” value in test [4] (setting [9]), in test [4] (setting [10]) and in test [4] (setting [11]) were 1.000, 0.876 and 0.852, respectively. Moreover, the figures for the “GSPT1 GFP/RFP Relative Abundance” value in test [5] (setting [9]), in test [5] (setting [10]) and in test [5] (setting [11]) were 0.240, 0.041 and 0.012, respectively.
For `O=C1CCC(N2C(=O)C=C(Nc3nccs3)C2=O)C(=O)N1` (centres unmarked) [Compound 19, 3-(2,5-dioxo-3-(thiazol-2-ylamino)-2,5-dihydro-1H-pyrrol-1-yl)piperidine-2,6-dione], the results for the “TR-FRET-IKZF2 (Normalized to CC-885)” value in test [1] (setting [6]), in test [1] (setting [7]) and in test [1] (setting [8]) were 0.217, 0.041 and 0.057, respectively. Also, the “IKZF2 GFP/RFP Relative Abundance” value was 0.653 in test [2] (setting [9]), 0.980 in test [2] (setting [10]) and 0.991 in test [2] (setting [11]). Also, the “IKZF1 GFP/RFP Relative Abundance” value in test [3] (setting [9]) is 0.216; in test [3] (setting [10]), 0.818; in test [3] (setting [11]), 0.110. Moreover, the “SALL4 ZNF1-2 GFP/RFP Relative Abundance” value stood at 1.010 in test [4] (setting [9]), 1.012 in test [4] (setting [10]) and 0.597 in test [4] (setting [11]). In addition, the “GSPT1 GFP/RFP Relative Abundance” value in test [5] (setting [9]) was found to be 1.023; in test [5] (setting [10]) it was 0.946; in test [5] (setting [11]), 0.953.
On to `O=C1CCC(N2C(=O)C=C(Nc3ccc(-c4ccccc4)cc3)C2=O)C(=O)N1` (centres unmarked) [Compound 38, 3-(3-([1,1′-biphenyl]-4-ylamino)-2,5-dioxo-2,5-dihydro-1H-pyrrol-1-yl)piperidine-2,6-dione], for which the “TR-FRET-IKZF2 (Normalized to CC-885)” value was determined as 0.328 in test [1] (setting [6]), 0.266 in test [1] (setting [7]) and 0.210 in test [1] (setting [8]). The “IKZF2 GFP/RFP Relative Abundance” value was found to be 0.885 in test [2] (setting [9]), 1.002 in test [2] (setting [10]) and 0.977 in test [2] (setting [11]). Moreover, the “IKZF1 GFP/RFP Relative Abundance” value worked out at 0.728 in test [3] (setting [9]), 0.663 in test [3] (setting [10]) and 0.621 in test [3] (setting [11]). Further, the “SALL4 ZNF1-2 GFP/RFP Relative Abundance” value in test [4] (setting [9]) turned out to be 1.005; in test [4] (setting [10]), 0.887; in test [4] (setting [11]), 0.742. The “GSPT1 GFP/RFP Relative Abundance” value in test [5] (setting [9]) is on record as 1.174; in test [5] (setting [10]), 1.216; in test [5] (setting [11]), 0.870.
With `O=C1CCC(N2C(=O)C=C(Nc3cccc(Cl)c3)C2=O)C(=O)N1` (centres unmarked) [Compound 26, 3-(3-((3-chlorophenyl)amino)-2,5-dioxo-2,5-dihydro-1H-pyrrol-1-yl)piperidine-2,6-dione], the “TR-FRET-IKZF2 (Normalized to CC-885)” value in test [1] (setting [6]) came out at 0.365; in test [1] (setting [7]), 0.293; in test [1] (setting [8]) it was 0.228. Moreover, the figures for the “IKZF2 GFP/RFP Relative Abundance” value in test [2] (setting [9]), in test [2] (setting [10]) and in test [2] (setting [11]) were 0.913, 0.929 and 0.981, respectively. The “IKZF1 GFP/RFP Relative Abundance” value in test [3] (setting [9]) turned out to be 0.290; in test [3] (setting [10]), 0.381; in test [3] (setting [11]), 0.478. The “SALL4 ZNF1-2 GFP/RFP Relative Abundance” value is reported as 0.855 in test [4] (setting [9]), 0.869 in test [4] (setting [10]) and 0.787 in test [4] (setting [11]). For the same compound, the “GSPT1 GFP/RFP Relative Abundance” value came out at 0.952 in test [5] (setting [9]), 1.036 in test [5] (setting [10]) and 1.107 in test [5] (setting [11]).
For `O=C1CCC(N2C(=O)C=C(Nc3nc[nH]n3)C2=O)C(=O)N1` (centres unmarked) [Compound 18, 3-(3-((1H-1,2,4-triazol-3-yl)amino)-2,5-dioxo-2,5-dihydro-1H-pyrrol-1-yl)piperidine-2,6-dione], the “TR-FRET-IKZF2 (Normalized to CC-885)” value in test [1] (setting [6]) was 0.062; in test [1] (setting [7]) it was 0.018; in test [1] (setting [8]), 0.024. The entries for the “IKZF2 GFP/RFP Relative Abundance” value in test [2] (setting [9]), in test [2] (setting [10]) and in test [2] (setting [11]) were 1.055, 0.992 and 0.990, respectively. The figures for the “IKZF1 GFP/RFP Relative Abundance” value in test [3] (setting [9]), in test [3] (setting [10]) and in test [3] (setting [11]) were 0.943, 0.833 and 0.847, respectively. In addition, the “SALL4 ZNF1-2 GFP/RFP Relative Abundance” value in test [4] (setting [9]) is reported as 0.967; in test [4] (setting [10]) it was 0.999; in test [4] (setting [11]), 0.904. The “GSPT1 GFP/RFP Relative Abundance” value turned out to be 0.880 in test [5] (setting [9]), 0.650 in test [5] (setting [10]) and 0.498 in test [5] (setting [11]).
Consider `Cc1ccc(NC(=O)Nc2cccc(NC3=CC(=O)N(C4CCC(=O)NC4=O)C3=O)c2)cc1Cl` (centres unmarked) [Compound 43, 1-(3-chloro-4-methylphenyl)-3-(3-((1-(2,6-dioxopiperidin-3-yl)-2,5-dioxo-2,5-dihydro-1H-pyrrol-3-yl)amino)phenyl)urea], for which the “TR-FRET-IKZF2 (Normalized to CC-885)” value in test [1] (setting [6]) is given as 0.443; in test [1] (setting [7]), 0.353; in test [1] (setting [8]) it was 0.278. In addition, the “IKZF2 GFP/RFP Relative Abundance” value in test [2] (setting [9]) is reported as 1.054; in test [2] (setting [10]) it was 1.007; in test [2] (setting [11]) it was 0.980. Further, the “IKZF1 GFP/RFP Relative Abundance” value was 0.996 in test [3] (setting [9]), 0.240 in test [3] (setting [10]) and 0.301 in test [3] (setting [11]). Besides, the “SALL4 ZNF1-2 GFP/RFP Relative Abundance” value in test [4] (setting [9]) is on record as 1.072; in test [4] (setting [10]) it was 0.897; in test [4] (setting [11]) it was 0.888. For the same compound, the “GSPT1 GFP/RFP Relative Abundance” value is on record as 0.083 in test [5] (setting [9]), 0.072 in test [5] (setting [10]) and 0.087 in test [5] (setting [11]).

In general, DC50 refers to the concentration giving 50% degradation. A higher DC50 goes with degradation only at high concentration.
